Data as given in article PMC7006686, “A class of carbonic anhydrase IX/XII – selective carboxylate inhibitors” (Journal of Enzyme Inhibition and Medicinal Chemistry, 2020).
Like-named read-outs stand apart in the source and are kept apart here.

How the values were obtained:
Assay in all cases: stopped-flow CO2 hydrase assay
Format in all cases: biochemical
hCA XII = target: T1, hCA XII (Homo sapiens, UniProt O43570)
T1 construct: gene CA12; recombinant, obtained in-house
Source text: stopped-flow CO2 hydrase assay on hCA XII

hCA I = target: T2, hCA I (Homo sapiens, UniProt P00915)
T2 construct: gene CA1; recombinant, obtained in-house; cytosolic isoform
Source text: stopped-flow CO2 hydrase assay on hCA I

hCA IX = target: T3, hCA IX (Homo sapiens, UniProt Q16790)
T3 construct: gene CA9; recombinant, obtained in-house
Source text: stopped-flow CO2 hydrase assay on hCA IX

hCA II = target: T4, hCA II (Homo sapiens, UniProt P00918)
T4 construct: gene CA2; recombinant, obtained in-house; cytosolic isoform
Source text: stopped-flow CO2 hydrase assay on hCA II

T1 sequence (O43570 25-354): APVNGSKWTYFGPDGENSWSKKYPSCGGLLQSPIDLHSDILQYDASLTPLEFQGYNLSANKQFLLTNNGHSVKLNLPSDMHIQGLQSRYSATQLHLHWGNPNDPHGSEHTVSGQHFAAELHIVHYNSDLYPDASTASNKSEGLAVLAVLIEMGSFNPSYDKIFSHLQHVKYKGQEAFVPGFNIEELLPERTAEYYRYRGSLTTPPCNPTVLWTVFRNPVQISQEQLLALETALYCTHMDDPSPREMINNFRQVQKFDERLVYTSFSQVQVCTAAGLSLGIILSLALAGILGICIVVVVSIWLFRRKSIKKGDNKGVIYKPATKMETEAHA
T2 sequence (P00915 2-261): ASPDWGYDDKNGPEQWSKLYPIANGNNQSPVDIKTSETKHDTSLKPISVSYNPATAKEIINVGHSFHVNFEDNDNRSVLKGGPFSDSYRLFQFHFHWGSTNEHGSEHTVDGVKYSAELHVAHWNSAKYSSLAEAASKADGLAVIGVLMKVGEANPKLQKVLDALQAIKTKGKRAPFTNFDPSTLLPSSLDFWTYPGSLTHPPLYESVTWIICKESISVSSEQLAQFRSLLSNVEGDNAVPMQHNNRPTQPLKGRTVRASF

Row | Compound | Ki (hCA XII) [µM] | Ki (hCA I) [µM] | Ki (hCA IX; read-out: hCA IX) [µM] | Ki (hCA II) [µM] | Ki (hCA IX; read-out: hCA I) [µM]
1 | O=C(O)CN1C(=O)SC(=Cc2ccccc2)C1=O [3a, 2-(5-benzylidene-2,4-dioxothiazolidin-3-yl)acetic acid] | 0.58 | > 100 | 22.2 | > 100 | 
2 | O=C(O)CN1C(=O)SC(=Cc2ccccc2Cl)C1=O [3d, 2-(5-(2-chlorobenzylidene)-2,4-dioxothiazolidin-3-yl)acetic acid] | 0.47 | > 100 | 24.1 | > 100 | 
3 | COc1ccc(C=C2SC(=O)N(CC(=O)O)C2=O)cc1 [3f, 2-(5-(4-methoxybenzylidene)-2,4-dioxothiazolidin-3-yl) acetic acid] | 0.85 | > 100 | 3.2 | > 100 | 
4 | O=C(O)CN1C(=O)SC(=Cc2ccc(Br)cc2)C1=O [3e, 2-(5-(4-bromobenzylidene)-2,4-dioxothiazolidin-3-yl)acetic acid] | 0.91 | > 100 | 33.3 | > 100 | 
5 | COc1cccc(C=C2SC(=O)N(CC(=O)O)C2=O)c1 [3g, 2-(5-(3-methoxybenzylidene)-2,4-dioxothiazolidin-3-yl) acetic acid] | 0.3 | > 100 |  | > 100 | > 100
6 | O=C(O)CN1C(=O)SC(=Cc2ccc(Cl)cc2)C1=O [3c, 2-(5-(4-chlorobenzylidene)-2,4-dioxothiazolidin-3-yl)acetic acid] | 0.66 | > 100 | 3.1 | > 100 | 
7 | Cc1ccc(C=C2SC(=O)N(CC(=O)O)C2=O)cc1 [3b] | 0.93 | > 100 |  | > 100 | > 100
